According to PubChem BioAssay (NCI):
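Briefly, cells in 96-well plates were exposed to five compound concentrations for 48 h, and endpoints were estimated by linear interpolation. The concentration for 50% growth inhibition is given as GI50. Definition used: TGI = concentration required for complete inhibition of growth.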

How the values were obtained:
Assay in all cases: NCI-60 cell line screen, 48 h
ACHN renal = tested on: ACHN renal
OVCAR-8 ovarian = tested on: OVCAR-8 ovarian
SN12C renal = tested on: SN12C renal
SNB-19 CNS = tested on: SNB-19 CNS
SR leukemia = tested on: SR leukemia
SW-620 colon = tested on: SW-620 colon
MCF7 breast = tested on: MCF7 breast
MDA-MB-435 = tested on: MDA-MB-435
NCI-H23 lung = tested on: NCI-H23 lung
T-47D breast = tested on: T-47D breast

NC(=O)c1ncn(C2OC(CO)C(O)C2O)c1O (stereo not drawn)
TGI (ACHN renal): > 100 µM
TGI (OVCAR-8 ovarian): > 100 µM
TGI (SN12C renal): > 100 µM
TGI (SNB-19 CNS): > 100 µM
TGI (SR leukemia): > 100 µM
TGI (SW-620 colon): > 100 µM

COc1cc(C2NC(=O)C(C#N)=C(Nc3cccc(C)c3)S2)ccc1O (stereo not drawn)
GI50 (ACHN renal): > 100 µM
TGI (ACHN renal): > 100 µM
GI50 (MCF7 breast): > 100000 nM
TGI (MCF7 breast): > 100 µM
GI50 (MDA-MB-435): > 100000 nM
TGI (MDA-MB-435): > 100 µM
GI50 (NCI-H23 lung): > 100 µM
TGI (NCI-H23 lung): > 100 µM
GI50 (OVCAR-8 ovarian): > 100 µM
TGI (OVCAR-8 ovarian): > 100 µM
GI50 (SN12C renal): > 100 µM
TGI (SN12C renal): > 100 µM
GI50 (SNB-19 CNS): > 100000 nM
TGI (SNB-19 CNS): > 100 µM
GI50 (SR leukemia): > 100000 nM
TGI (SR leukemia): > 100 µM
GI50 (SW-620 colon): > 100000 nM
TGI (SW-620 colon): > 100 µM
GI50 (T-47D breast): > 100000 nM
TGI (T-47D breast): > 100 µM

O=C(C(=CN1CCN(C(=O)c2ccco2)C1=S)C(=O)c1ccccc1)c1ccccc1
GI50 (ACHN renal): 5.75 µM
TGI (ACHN renal): 16.5 µM
GI50 (MDA-MB-435): 7240 nM
TGI (MDA-MB-435): 18.7 µM
GI50 (NCI-H23 lung): 6.95 µM
TGI (NCI-H23 lung): 14 µM
GI50 (OVCAR-8 ovarian): 16.2 µM
TGI (OVCAR-8 ovarian): 41.4 µM
GI50 (SN12C renal): 6.07 µM
TGI (SN12C renal): 14.4 µM
GI50 (SNB-19 CNS): 29200 nM
TGI (SNB-19 CNS): > 50 µM
GI50 (SR leukemia): 1280 nM
TGI (SR leukemia): 6.72 µM
GI50 (SW-620 colon): 8730 nM
TGI (SW-620 colon): 20.3 µM
GI50 (T-47D breast): > 50000 nM
TGI (T-47D breast): > 50 µM

O=C1Cc2cc(CCN3CCNCC3)c(Cl)cc2N1
GI50 (ACHN renal): > 100 µM
TGI (ACHN renal): > 100 µM
GI50 (MCF7 breast): 3650 nM
TGI (MCF7 breast): > 100 µM
GI50 (MDA-MB-435): 2770 nM
TGI (MDA-MB-435): 14.2 µM
GI50 (NCI-H23 lung): 46.4 µM
TGI (NCI-H23 lung): > 100 µM
GI50 (OVCAR-8 ovarian): 36.8 µM
TGI (OVCAR-8 ovarian): > 100 µM
GI50 (SN12C renal): 6 µM
TGI (SN12C renal): > 100 µM
GI50 (SNB-19 CNS): 23700 nM
TGI (SNB-19 CNS): > 100 µM
GI50 (SR leukemia): 6200 nM
TGI (SR leukemia): > 100 µM
GI50 (SW-620 colon): 4980 nM
TGI (SW-620 colon): > 100 µM
GI50 (T-47D breast): 29100 nM
TGI (T-47D breast): > 100 µM

CN(CCCCCl)P(=O)(OCc1ccc([N+](=O)[O-])o1)OCC1OC(n2cc([N+](=O)[O-])c(=O)[nH]c2=O)CC1O (stereo not drawn)
GI50 (ACHN renal): 17.5 µM
TGI (ACHN renal): > 100 µM
GI50 (MCF7 breast): 22800 nM
TGI (MCF7 breast): > 100 µM
GI50 (MDA-MB-435): > 100000 nM
TGI (MDA-MB-435): > 100 µM
GI50 (NCI-H23 lung): 75.2 µM
TGI (NCI-H23 lung): > 100 µM
GI50 (OVCAR-8 ovarian): 41.6 µM
TGI (OVCAR-8 ovarian): > 100 µM
GI50 (SN12C renal): 51.9 µM
TGI (SN12C renal): > 100 µM
GI50 (SNB-19 CNS): > 100000 nM
TGI (SNB-19 CNS): > 100 µM
GI50 (SW-620 colon): > 100000 nM
TGI (SW-620 colon): > 100 µM
GI50 (T-47D breast): > 100000 nM
TGI (T-47D breast): > 100 µM

COc1ccc(C(O)c2ccccn2)cc1 (stereo not drawn)
TGI (ACHN renal): > 100 µM
TGI (MCF7 breast): > 100 µM
TGI (MDA-MB-435): > 100 µM
TGI (NCI-H23 lung): > 100 µM
TGI (OVCAR-8 ovarian): > 100 µM
TGI (SN12C renal): > 100 µM
TGI (SNB-19 CNS): > 100 µM
TGI (SR leukemia): > 100 µM
TGI (SW-620 colon): > 100 µM
TGI (T-47D breast): > 100 µM

CN1CCN(c2ccc(NC3=CC(=O)c4ncncc4C3=O)cc2)CC1
GI50 (ACHN renal): 0.228 µM
TGI (ACHN renal): 0.52 µM
GI50 (MCF7 breast): 186 nM
TGI (MCF7 breast): 0.405 µM
GI50 (MDA-MB-435): 191 nM
TGI (MDA-MB-435): 0.35 µM
GI50 (NCI-H23 lung): 0.369 µM
TGI (NCI-H23 lung): 1.67 µM
GI50 (OVCAR-8 ovarian): 0.323 µM
TGI (OVCAR-8 ovarian): 1.57 µM
GI50 (SN12C renal): 0.326 µM
TGI (SN12C renal): 0.969 µM
GI50 (SNB-19 CNS): 1520 nM
TGI (SNB-19 CNS): 2.93 µM
GI50 (SR leukemia): 321 nM
TGI (SR leukemia): > 100 µM
GI50 (SW-620 colon): 336 nM
TGI (SW-620 colon): 1.27 µM
GI50 (T-47D breast): 231 nM
TGI (T-47D breast): 0.651 µM

CCCCOC(=O)NC(=O)c1cn(CCCOC(=O)CCCCCCCCC(=O)OCCCn2cc(C(=O)NC(=O)OCCCC)c(=O)n(C)c2=O)c(=O)n(C)c1=O
TGI (ACHN renal): > 100 µM
TGI (NCI-H23 lung): > 100 µM
TGI (OVCAR-8 ovarian): > 100 µM
TGI (SN12C renal): > 100 µM
TGI (SNB-19 CNS): > 100 µM
TGI (SR leukemia): > 100 µM
TGI (SW-620 colon): > 100 µM

NS(=O)(=O)c1ccc(N=Nc2c[nH]c(=O)c(O)c2)cc1
TGI (ACHN renal): > 100 µM
TGI (MCF7 breast): > 100 µM
TGI (MDA-MB-435): > 100 µM
TGI (NCI-H23 lung): > 100 µM
TGI (OVCAR-8 ovarian): > 100 µM
TGI (SN12C renal): > 100 µM
TGI (SNB-19 CNS): > 100 µM
TGI (SR leukemia): > 100 µM
TGI (SW-620 colon): > 100 µM
TGI (T-47D breast): > 100 µM

FC(F)(F)c1cccc(-c2[nH]ncc2-c2nnnn2-c2ccccc2)c1
GI50 (ACHN renal): 11.2 µM
TGI (ACHN renal): 24.5 µM
GI50 (MCF7 breast): 3300 nM
TGI (MCF7 breast): 13.7 µM
GI50 (MDA-MB-435): 1860 nM
TGI (MDA-MB-435): 5.89 µM
GI50 (NCI-H23 lung): 5.86 µM
TGI (NCI-H23 lung): 23.3 µM
GI50 (OVCAR-8 ovarian): 7.77 µM
TGI (OVCAR-8 ovarian): 90.2 µM
GI50 (SN12C renal): 9.76 µM
TGI (SN12C renal): 21.9 µM
GI50 (SR leukemia): 1940 nM
TGI (SR leukemia): 5.42 µM
GI50 (SW-620 colon): 3230 nM
TGI (SW-620 colon): 12.2 µM
GI50 (T-47D breast): 4230 nM
TGI (T-47D breast): 24.7 µM

COC(=O)CC1=C(C)/C(=C/c2[nH]c(-c3ccc[nH]3)cc2OC)N=C1C
GI50 (ACHN renal): 0.247 µM
TGI (ACHN renal): 1.29 µM
GI50 (MCF7 breast): 82.8 nM
TGI (MCF7 breast): 0.733 µM
GI50 (MDA-MB-435): 311 nM
TGI (MDA-MB-435): 1.95 µM
GI50 (NCI-H23 lung): 0.325 µM
TGI (NCI-H23 lung): 3.09 µM
GI50 (OVCAR-8 ovarian): 0.236 µM
TGI (OVCAR-8 ovarian): 1.02 µM
GI50 (SN12C renal): 0.458 µM
TGI (SN12C renal): 9.19 µM
GI50 (SNB-19 CNS): 1350 nM
TGI (SNB-19 CNS): 14.2 µM
GI50 (SR leukemia): 133 nM
TGI (SR leukemia): 0.677 µM
GI50 (SW-620 colon): 148 nM
TGI (SW-620 colon): 1.36 µM
GI50 (T-47D breast): 255 nM
TGI (T-47D breast): 1.52 µM

COc1ccc(/C=C/c2ccnc3ccccc23)cc1OC
TGI (ACHN renal): > 100 µM
TGI (MCF7 breast): 21.6 µM
TGI (MDA-MB-435): 28.6 µM
TGI (NCI-H23 lung): 45.5 µM
TGI (SN12C renal): 62.1 µM
TGI (SNB-19 CNS): 31.2 µM
TGI (SR leukemia): 54.2 µM
TGI (SW-620 colon): 29.1 µM
TGI (T-47D breast): 74.5 µM

COC(=O)c1cc(-c2ccc(S(C)(=O)=O)cc2)[nH]c1N/N=C/c1c(Cl)cccc1Cl
GI50 (ACHN renal): 2 µM
TGI (ACHN renal): > 100 µM
GI50 (MCF7 breast): 329 nM
TGI (MCF7 breast): 20.8 µM
GI50 (MDA-MB-435): 214 nM
TGI (MDA-MB-435): 0.578 µM
GI50 (NCI-H23 lung): 0.75 µM
TGI (NCI-H23 lung): > 93.7 µM
GI50 (OVCAR-8 ovarian): 1.27 µM
TGI (OVCAR-8 ovarian): 98.1 µM
GI50 (SN12C renal): 0.699 µM
TGI (SN12C renal): > 100 µM
GI50 (SNB-19 CNS): 516 nM
TGI (SNB-19 CNS): > 100 µM
TGI (SR leukemia): > 100 µM
GI50 (SW-620 colon): 362 nM
TGI (SW-620 colon): > 100 µM
GI50 (T-47D breast): 374 nM
TGI (T-47D breast): > 35.7 µM

CN(C)c1ccc2[nH]c3c(C(N)=O)cc(=O)c(=O)c=3oc2c1
GI50 (ACHN renal): 0.767 µM
TGI (ACHN renal): 8.98 µM
GI50 (MCF7 breast): 1640 nM
TGI (MCF7 breast): 8.64 µM
GI50 (NCI-H23 lung): 1.1 µM
TGI (NCI-H23 lung): 25.8 µM
GI50 (OVCAR-8 ovarian): 1.05 µM
TGI (OVCAR-8 ovarian): > 100 µM
GI50 (SN12C renal): 1.95 µM
TGI (SN12C renal): 7.23 µM
GI50 (SNB-19 CNS): 2340 nM
TGI (SNB-19 CNS): 9.81 µM
GI50 (SR leukemia): 942 nM
TGI (SR leukemia): 8.49 µM
GI50 (SW-620 colon): 2020 nM
TGI (SW-620 colon): > 100 µM
GI50 (T-47D breast): 1810 nM
TGI (T-47D breast): > 100 µM
